Measured values published in US20200016159A1, “N3-CYCLICALLY SUBSTITUTED THIENOURACILS AND USE THEREOF” (Bayer Aktiengesellschaft, priority 2016, published 2020).

Experiments:
[1] = molecular target: T1, human adenosine A2b receptor (Homo sapiens, UniProt P29275); test: Cellular in vitro reporter gene test for A2b receptor activity (antagonism of NECA); type: cell-based; set-up: expressed in transfected cells; host or cells: CHO-K1 (Chinese hamster ovary) with CRE-luciferase reporter; conditions: recombinant CHO-K1 cells, CRE-luciferase reporter, co-incubation with EC50 concentration of NECA, 3 hours
T1 sequence (P29275 1-332): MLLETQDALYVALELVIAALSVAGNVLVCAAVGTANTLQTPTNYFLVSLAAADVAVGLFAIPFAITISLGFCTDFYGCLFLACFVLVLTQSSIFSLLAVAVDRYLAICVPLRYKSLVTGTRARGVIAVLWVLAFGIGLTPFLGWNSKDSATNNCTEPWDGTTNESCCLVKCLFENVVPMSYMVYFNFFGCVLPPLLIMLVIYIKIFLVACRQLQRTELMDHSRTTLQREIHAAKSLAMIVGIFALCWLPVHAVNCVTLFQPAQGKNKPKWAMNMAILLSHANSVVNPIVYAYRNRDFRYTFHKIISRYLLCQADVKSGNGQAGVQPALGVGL
Outline: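 Antagonism measured as block of NECA-induced, cAMP/CRE-dependent luciferase expression in recombinant A2b CHO-K1 cells. NECA used at the EC50 set in a pre-experiment on each test day; luminescence detected after 3 h. Reported as IC50, partly averaged and rounded to two significant figures.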

[2] = molecular target: T2, human adenosine A3 receptor (Homo sapiens, UniProt P0DMS8); test: Adenosine receptor radioligand binding assay, A3 receptor ([125I]-AB-MECA, HEK293 membranes); conditions: membrane preparations of HEK293 cells, radioligand [125I]-AB-MECA
T2 construct: expressed in transfected cells; host or cells: HEK293
T2 sequence (P0DMS8 1-318): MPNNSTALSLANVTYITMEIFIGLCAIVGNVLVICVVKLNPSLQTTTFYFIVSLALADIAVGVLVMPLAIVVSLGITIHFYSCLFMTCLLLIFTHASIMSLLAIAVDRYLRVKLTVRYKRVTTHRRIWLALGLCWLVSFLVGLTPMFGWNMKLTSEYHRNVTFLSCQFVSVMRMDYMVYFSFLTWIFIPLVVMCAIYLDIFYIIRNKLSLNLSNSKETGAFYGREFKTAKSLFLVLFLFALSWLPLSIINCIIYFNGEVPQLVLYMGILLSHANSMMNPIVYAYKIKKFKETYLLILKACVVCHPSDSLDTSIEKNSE
Protocol: (§1) The binding properties of the test compounds on adenosine receptors were determined in binding studies with radioligands. For this purpose, membrane preparations of the human adenosine receptor subtypes were produced from cell lines having recombinant receptor expression (CHO cells for the A1 receptor, HEK293 cells for the A2a, A2b and A3 receptors). The following radioligands were used in the experiments: [^3H]-DPCPX for the A1 receptor, [^3H]-CGS 21680 for the A2a receptor, [^3H]-CPX for the A2b receptor and [^125I]-AB-MECA for the A3 receptor. The test substances were each tested in 8 different concentrations and 2 repeat tests per concentration. The displacement of the particular radioligand by the test compound was expressed as percentage inhibition of the specific binding of the controls.
(§2) The IC50 values (concentration which brings about half-maximum inhibition of the specific binding of the controls) and the Hill coefficients (nH) were determined by a non-linear regression analysis, using the competition curves obtained from the mean values of the repeat tests and conducting a curve fit according to the Hill equation:
(§3) (Y=specific binding; A=left-hand asymptote of the curve; D=right-hand asymptote of the curve; C=substance concentration; C50=IC50; nH=rise factor).
(§4) The inhibition constant (Ki) was calculated by the Cheng-Prusoff equation:
(§5) (L=concentration of the radioligand in the assay; KD=receptor affinity of the radioligand for the receptor, determined with a Scatchard plot).
(§6) [Literature: A1 receptor: Townsend-Nicholson, A. und Schofield, P. R., J. Biol. Chem. 269: 2373-2376 (1994); A2a receptor: Luthin, D. R. et al., Mol. Pharmacol. 47: 307-313 (1995); A2b receptor: Stehle, J. H. et al., Mol. Endocrinol. 6: 384-393 (1992) and Linden et al., Mol. Pharmacol. 56: 705-713 (1999); A3 receptor: Salvatore, C. A. et al., Proc. Natl. Acad. Sci. U.S.A. 90: 10365-10369 (1993) and Jacobson, K. A. et al., Neuropharmacology 36: 1157-1165 (1997)].
(§7) Table 2 below lists the K1 values thus determined from these binding assays for representative working examples (in some cases as means of a plurality of independent individual determinations and rounded to two significant figures; it may also be the case here that various independent preparations of the respective working example have been used): […]

[3] = molecular target: T3, human adenosine A1 receptor (Homo sapiens, UniProt P30542); test: Adenosine receptor radioligand binding assay, A1 receptor ([3H]-DPCPX, CHO membranes); conditions: membrane preparations of CHO cells, radioligand [3H]-DPCPX
T3 construct: expressed in transfected cells; host or cells: CHO
T3 sequence (P30542 1-326): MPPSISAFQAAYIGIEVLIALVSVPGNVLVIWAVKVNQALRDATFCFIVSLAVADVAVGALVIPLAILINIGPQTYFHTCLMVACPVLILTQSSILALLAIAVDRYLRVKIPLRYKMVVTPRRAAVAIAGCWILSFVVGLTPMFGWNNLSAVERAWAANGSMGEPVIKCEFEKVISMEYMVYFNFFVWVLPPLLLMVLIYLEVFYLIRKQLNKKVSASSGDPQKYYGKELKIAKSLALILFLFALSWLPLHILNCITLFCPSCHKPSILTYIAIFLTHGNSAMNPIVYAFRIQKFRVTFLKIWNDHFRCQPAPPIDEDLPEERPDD
Protocol: as §1, §2, §3, §4, §5, §6, §7

[4] = molecular target: T1, human adenosine A2b receptor; test: Adenosine receptor radioligand binding assay, A2b receptor ([3H]-CPX, HEK293 membranes); set-up: expressed in transfected cells; conditions: membrane preparations of HEK293 cells, radioligand [3H]-CPX
Protocol: as §1, §2, §3, §4, §5, §6, §7

[5] = molecular target: T4, human adenosine A2a receptor (Homo sapiens, UniProt P29274); test: Adenosine receptor radioligand binding assay, A2a receptor ([3H]-CGS 21680, HEK293 membranes); conditions: membrane preparations of HEK293 cells, radioligand [3H]-CGS 21680
T4 construct: expressed in transfected cells; host or cells: HEK293
T4 sequence (P29274 whole entry): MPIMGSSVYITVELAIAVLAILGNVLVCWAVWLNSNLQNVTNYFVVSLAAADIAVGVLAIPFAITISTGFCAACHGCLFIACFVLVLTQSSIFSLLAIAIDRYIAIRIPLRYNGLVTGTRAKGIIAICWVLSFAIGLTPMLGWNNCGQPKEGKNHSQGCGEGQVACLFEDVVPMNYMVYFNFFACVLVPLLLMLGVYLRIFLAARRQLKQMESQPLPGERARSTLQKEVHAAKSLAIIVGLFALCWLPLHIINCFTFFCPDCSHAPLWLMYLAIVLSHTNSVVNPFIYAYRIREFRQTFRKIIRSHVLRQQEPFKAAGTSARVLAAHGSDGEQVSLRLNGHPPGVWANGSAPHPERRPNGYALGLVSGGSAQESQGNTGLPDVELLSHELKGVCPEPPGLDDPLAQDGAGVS
Protocol: as §1, §2, §3, §4, §5, §6, §7

[6] = test system: IL-6 release by LL29 fibroblasts; test: NECA-induced IL-6 release by LL29 fibroblasts; type: cell-based; conditions: Homo sapiens, Fibroblast; LL29 cells stimulated with NECA (10 μM), 24 hours, IL-6 ELISA of supernatant
Protocol: Stimulation of fibroblasts with adenosine or the adenosine analog 5′-N-ethylcarboxamidoadenosine (NECA) leads to release of the pro-inflammatory and pro-fibrotic cytokine IL-6 which can be prevented by inhibition of the A2b receptor.
Accordingly, confluent cells of the human fibroblast cell line LL29 were treated with the test substances and stimulated with NECA (10 μM). After an incubation time of 24 hours, the cell supernatant is removed and human IL-6 in the cell supernatant is determined by ELISA (Quantikine® IL6 ELISA, R&D Systems, Minneapolis, USA).
as §7, with “3” for “2”, “IC50” for “K1”, “obtained in this way for inhibition of IL-6 release” for “thus determined from these binding assays”

Structure (SMILES)	IC50 [1] [nM]	other results
Cc1c(Cn2nc[nH]c2=O)sc2c1c(=O)n(C1CC1)c(=O)n2CCC(F)(F)F [Example 15, 3-Cyclopropyl-5-methyl-6-[(5-oxo-4,5-dihydro-1H-1,2,4-triazol-1-yl)methyl]-1-(3,3,3-trifluoropropyl)thieno[2,3-d]pyrimidine-2,4(1H,3H)-dione]	14	Ki [2]: > 10000 nM; Ki [3]: 8000 nM; Ki [4]: 3.6 nM; Ki [5]: 3000 nM
COCCn1c(=O)n(C2(C)CC2)c(=O)c2c(C)c(CN3CCNC3=O)sc21 [Example 70, 1-(2-Methoxyethyl)-5-methyl-3-(1-methylcyclopropyl)-6-[(2-oxoimidazolidin-1-yl)methyl]thieno[2,3-d]pyrimidine-2,4(1H,3H)-dione]	15	Ki [2]: > 10000 nM; Ki [3]: > 10000 nM; Ki [4]: 5.7 nM; Ki [5]: 4800 nM
COCCn1c(=O)n(C2CC2)c(=O)c2c(C)c(CN3CCNC3=NC(=O)OC)sc21 [Example 26, Methyl [1-{[3-cyclopropyl-1-(2-methoxyethyl)-5-methyl-2,4-dioxo-1,2,3,4-tetrahydrothieno[2,3-d]pyrimidin-6-yl]methyl}imidazolidin-2-ylidene]carbamate]	8.3	IC50 [6]: 12 nM
Cc1c(Cn2nc[nH]c2=O)sc2c1c(=O)n(C1(C)CC1)c(=O)n2CCOC(F)(F)F [Example 76, 5-Methyl-3-(1-methylcyclopropyl)-6-[(5-oxo-4,5-dihydro-1H-1,2,4-triazol-1-yl)methyl]-1-[2-(trifluormethoxy)ethyl]thieno[2,3-d]pyrimidine-2,4(1H,3H)-dione]	8.5	IC50 [6]: 11 nM
Cc1c(CN2CCNC2=O)sc2c1c(=O)n(C1CC1)c(=O)n2CCCF [Example 5, 3-Cyclopropyl-1-(3-fluoropropyl)-5-methyl-6-[(2-oxoimidazolidin-1-yl)methyl]thieno[2,3-d]pyrimidine-2,4(1H,3H)-dione]	12	IC50 [6]: 21 nM
Cc1c(Cn2[nH]ccc2=O)sc2c1c(=O)n(C1CC1)c(=O)n2CCC(F)(F)F [Example 200, 3-Cyclopropyl-5-methyl-6-[(5-oxo-2,5-dihydro-H-pyrazol-1-yl)methyl]-1-(3,3,3-trifluoropropyl)thieno[2,3-d]pyrimidine-2,4(1H,3H)-dione]	55	
Cc1c(CN2CCNC2=NC#N)sc2c1c(=O)n(C1CCC1)c(=O)n2CCC(F)(F)F [Example 111, [1-{[3-Cyclobutyl-5-methyl-2,4-dioxo-1-(3,3,3-trifluoropropyl)-1,2,3,4-tetrahydrothieno[2,3-d]pyrimidin-6-yl]methyl}imidazolidin-2-ylidene]cyanamide]	1.7	
COCCn1c(=O)n(C2CC(F)(F)C2)c(=O)c2c(C)c(CN3CCNC(=O)C3=O)sc21 [Example 128, 3-(3,3-Difluorocyclobutyl)-6-[(2,3-dioxopiperazin-1-yl)methyl]-1-(2-methoxyethyl)-5-methylthieno[2,3-d]pyrimidine-2,4(1H,3H)-dione]	36	
COCCn1c(=O)n(C2CC2C)c(=O)c2c(C)c(CN3CCNC3=O)sc21 (single isomer, unassigned) [Example 95, 1-(2-Methoxyethyl)-5-methyl-3-(2-methylcyclopropyl)-6-[(2-oxoimidazolidin-1-yl)methyl]thieno[2,3-d]pyrimidine-2,4(1H,3H)-dione]	26	
Cc1c(Cn2nc[nH]c2=O)sc2c1c(=O)n(C1CC1)c(=O)n2CC#N [Example 23, {3-Cyclopropyl-5-methyl-2,4-dioxo-6-[(5-oxo-4,5-dihydro-1H-1,2,4-triazol-1-yl)methyl]-3,4-dihydrothieno[2,3-d]pyrimidin-1 (2H)-yl}acetonitrile]	130	
CCn1c(=O)n(C2CC2C)c(=O)c2c(C)c(CN3CCNC3=O)sc21 (single isomer, unassigned) [Example 225, 1-Ethyl-5-methyl-3-(2-methylcyclopropyl)-6-[(2-oxoimidazolidin-1-yl)methyl]thieno[2,3-d]pyrimidine-2,4(1H,3H)-dione]	26	
COCCn1c(=O)n(C2(C(F)(F)F)CC2)c(=O)c2c(C)c(CN3CCNC(=O)C3=O)sc21 [Example 88, 6-[(2,3-Dioxopiperazin-1-yl)methyl]-1-(2-methoxyethyl)-5-methyl-3-[1-(trifluoromethyl)cyclopropyl]thieno[2,3-d]pyrimidine-2,4(1H,3H)-dione]	690	
COCCn1c(=O)n(C2(C)CC2)c(=O)c2c(C)c(Cn3nc[nH]c3=O)sc21 [Example 74, 1-(2-Methoxyethyl)-5-methyl-3-(1-methylcyclopropyl)-6-[(5-oxo-4,5-dihydro-1H-1,2,4-triazol-1-yl)methyl]thieno[2,3-d]pyrimidine-2,4(1H,3H)-dione]	86	
COC(=O)N=C1NCCN1Cc1sc2c(c1C)c(=O)n(C1CC(C)(C)C1)c(=O)n2CCC(F)(F)F [Example 166, Methyl [1-{[3-(3,3-dimethylcyclobutyl)-5-methyl-2,4-dioxo-1-(3,3,3-trifluoropropyl)-1,2,3,4-tetrahydrothieno[2,3-d]pyrimidin-6-yl]methyl}imidazolidin-2-ylidene]carbamate]	4.7	
COC(=O)N=C1NCCN1Cc1sc2c(c1C)c(=O)n(C1CC3(CCC3)C1)c(=O)n2CCC(F)(F)F [Example 176, Methyl [1-{[5-methyl-2,4-dioxo-3-(spiro[3.3]hept-2-yl)-1-(3,3,3-trifluoropropyl)-1,2,3,4-tetrahydrothieno[2,3-d]pyrimidin-6-yl]methyl}imidazolidin-2-ylidene]carbamate]	4	
